{
  "source": "patent EP0396400A1",
  "about": "“Microbial transformation product” (Merck & Co., Inc., priority 1989, dated 1990)",
  "tested_on": "mouse T lymphocytes",
  "experiment": "T-cell proliferation assay (ionomycin plus PMA induced T-cell stimulation, tritiated thymidine uptake)",
  "format": "cell-based, C57B1/6 mice",
  "conditions": "T-lymphocyte, 10 ng/ml, standard",
  "procedure": "The principle of this assay is to measure the proliferation of mouse T lymphocytes stimulated with the combination of ionomycin plus PMA. A positive sample in this assay will inhibit T-cell proliferation, as indicated by reduced tritiated thymidine uptake.\nCells were pelleted by centrifugation at 1500 rpm for 8 minutes. Contaminating red cells were removed by treating the pellet with ammonium chloride lysing buffer (GIBCO) for 2 minutes at 4°C. Cold medium was added and cells were again centrifuged at 1500 rpm for 8 minutes. T lymphocytes were then isolated by separation of the cell suspension on nylon wool columns as follows: Nylon wool columns were prepared by packing approximately 4 grams of washed and dried nylon wool into 20 ml plastic syringes. The columns were sterilized by autoclaving at 250°F for 30 minutes. […]\nThe cell suspension was immediately distributed into 96 well flat-bottom microculture plates (Costar) at 200 µl/well. […] The proliferation of T lymphocytes was assessed by measurement of tritiated thymidine incorporation. […] Radioactivity of filter discs corresponding to individual wells was measured by standard liquid scintillation counting methods (Betacounter). Mean counts per minute of replicate wells were calculated and the results expressed as percent inhibition of tritiated thymidine uptake (proliferation) as follows: [formula]",
  "data": [
    {"smiles": "C=CC[C@@H]1/C=C(\\C)C[C@H](C)C[C@H](OC)[C@H]2O[C@@](O)(C(=O)C(=O)N3CCCC[C@H]3C(=O)O[C@H](/C(C)=C/[C@@H]3CC[C@@H](O)[C@H](OC)C3)[C@H](C)[C@@H](O)CC1=O)[C@H](C)C[C@@H]2OC", "note": "[L-679,934]", "values": [
      {"measurement": "inhibition at 0.01 µg/mL", "result": 99, "unit": "%"}
    ]}
  ]
}
